Laboratory results taken from patent US8486996B2, “Aroylfuranes and aroylthiophenes” (Basilea Pharmaceutica AG, priority 2006, dated 2013).
Like-named read-outs stand apart in the source and are kept apart here.

Legend:
Assay type in all cases: cell-based
[1] = Hoechst 33342 nuclear staining (48 h read-out)
Outline: (§1)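 Adherent cells pre-spread 24 h before dosing, suspension cells dosed at seeding; compounds at 0.001 μM-10 μM final, 48 h at culture conditions. Hoechst 33342 (2-5 μg/ml) added for 30 min, then fluorescence microscopy scoring of apoptotic nuclear fraction and apoptosis-specific morphology, reported as scores A-D.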

[2] = system: tumor cells; assay: Hoechst 33342 nuclear staining (48 h read-out)
Outline: as §1

[3] = MTS proliferation assay (72 h read-out); conditions: MRC5 cells
Outline: (§2)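 Viability was read by MTS absorbance at 492 nm after 3 h with reagent. Before that, cells plated a day earlier at 1.5×10^3–10^4 per well had been incubated with test compound at final concentrations of 0.001–10 μM for 72 h; activity is given as category scores A–D.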

[4] = system: tumor cells; assay: MTS proliferation assay (72 h read-out)
Outline: as §2

[5] = Mitochondrial membrane potential, JC-1 (read-out 48 h); conditions: PBL, JC-1, 48 h
Outline: (§3)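 Tumor cells were treated with test compounds (adherent cells after 24 h of attachment, suspension cells immediately), medium holding up to 5% DMSO. After 48 h, JC-1 (2-5 μg/ml in added medium) was applied for 30 min. Fluorescence microscopy (FITC/TRITC filters) scored the fraction of cells with dissipated mitochondrial membrane potential as categories A-D.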

[6] = system: tumor cells; assay: as above; conditions: JC-1, 48 h
Outline: as §3

[7] = MRC5 cells, read-out: Hoechst 33342 nuclear staining EC50, MRC5
[8] = PBL, read-out: Hoechst 33342 nuclear staining EC50, PBL
[9] = HeLa cells, read-out: Hoechst 33342 nuclear staining EC50, HeLa
[10] = Jily cells, read-out: Hoechst 33342 nuclear staining EC50, Jily
[11] = Jurkat cells, read-out: Hoechst 33342 nuclear staining EC50, Jurkat
[12] = HT1080 cells, read-out: MTS proliferation assay IC50, HT1080
[13] = HeLa cells, read-out: MTS proliferation assay IC50, HeLa
[14] = Jily cells, read-out: MTS proliferation assay IC50, Jily
[15] = Jurkat cells, read-out: MTS proliferation assay IC50, Jurkat
[16] = HeLa cells, read-out: Mitochondrial membrane potential (read-out 48 h) HeLa
[17] = Jily cells, read-out: Mitochondrial membrane potential (read-out 48 h) Jily
[18] = Jurkat cells, read-out: Mitochondrial membrane potential (read-out 48 h) Jurkat
[19] = MCF7 cells, read-out: Mitochondrial membrane potential (read-out 48 h) MCF7

SMILES | EC50 [1, 7] | EC50 [1, 8] | EC50 [2, 9] | EC50 [2, 10] | EC50 [2, 11] | IC50 [3] | IC50 [4, 12] | IC50 [4, 13] | IC50 [4, 14] | IC50 [4, 15] | EC50 [5] | EC50 [6, 16] | EC50 [6, 17] | EC50 [6, 18] | EC50 [6, 19] | further results
CN1CCN(c2ccc(F)cc2C(=O)c2oc3ccc(Cl)cc3c2N)CC1 [Example 102] | > 1000 nM | > 1000 nM | > 1000 nM | > 1000 nM | > 1000 nM | > 1000 nM | > 1000 nM | > 1000 nM | > 1000 nM | 100 to 1000 nM | > 1000 nM | > 1000 nM | > 1000 nM | > 1000 nM | > 1000 nM | 
Nc1c(C(=O)c2cc(F)ccc2N2CCOCC2)oc2ccc(Cl)cc12 [Example 93] | 10 to 100 nM | > 1000 nM | 10 to 100 nM | 10 to 100 nM | 10 to 100 nM | 10 to 100 nM | 10 to 100 nM | 10 to 100 nM | 10 to 100 nM | 100 to 1000 nM | > 1000 nM | 10 to 100 nM | 100 to 1000 nM | 10 to 100 nM | 100 to 1000 nM | 
CCOc1ccc(F)cc1C(=O)c1cc2cc(OCCOC)ccc2o1 [Example 70] | 100 to 1000 nM | > 1000 nM | 100 to 1000 nM | 100 to 1000 nM | 100 to 1000 nM | 100 to 1000 nM | 100 to 1000 nM | 100 to 1000 nM | 100 to 1000 nM |  | > 1000 nM | > 1000 nM | 100 to 1000 nM | 100 to 1000 nM | > 1000 nM | 
CCOc1ccc(C(=O)O)cc1C(=O)c1oc2ccc(Cl)cc2c1N [Example 44] | > 1000 nM | > 1000 nM | > 1000 nM | > 1000 nM | > 1000 nM | > 1000 nM | > 1000 nM | > 1000 nM | > 1000 nM | > 1000 nM | > 1000 nM | > 1000 nM | > 1000 nM | > 1000 nM | > 1000 nM | 
COc1ccc2oc(C(=O)c3cc(F)ccc3N3CCCC(C)C3)cc2c1 (stereo not shown) [Example 99] | > 1000 nM | > 1000 nM | 100 to 1000 nM | 100 to 1000 nM | 100 to 1000 nM | 10 to 100 nM | 100 to 1000 nM | 100 to 1000 nM | 10 to 100 nM | 10 to 100 nM | > 1000 nM | 100 to 1000 nM | 100 to 1000 nM | 100 to 1000 nM | 100 to 1000 nM | 
CN(C)CCOc1ccccc1C(=O)c1oc2ccc(Cl)cc2c1N [Example 11] | > 1000 nM | > 1000 nM | > 1000 nM | > 1000 nM | > 1000 nM | > 1000 nM | > 1000 nM | > 1000 nM | > 1000 nM | > 1000 nM | > 1000 nM | > 1000 nM | > 1000 nM | > 1000 nM | > 1000 nM | 
Nc1c(C(=O)c2cccnc2N2CCCC2)oc2ccc(Cl)cc12 [Example 79] | > 1000 nM | > 1000 nM | > 1000 nM | > 1000 nM | 100 to 1000 nM | > 1000 nM | 100 to 1000 nM | 100 to 1000 nM | 100 to 1000 nM | 100 to 1000 nM | > 1000 nM | > 1000 nM | 100 to 1000 nM | 100 to 1000 nM | > 1000 nM | 
O=C(c1cc2cc(OCc3ccccc3)ccc2o1)c1cc(F)ccc1N1CC=CCC1 [Example 109] | > 1000 nM | > 1000 nM | > 1000 nM | > 1000 nM | > 1000 nM | > 1000 nM | > 1000 nM | > 1000 nM | > 1000 nM | > 1000 nM | > 1000 nM | > 1000 nM | > 1000 nM | > 1000 nM | > 1000 nM | 
CCOc1ccc(S(=O)(=O)N(C)C)cc1C(=O)c1oc2ccc(Cl)cc2c1N [Example 46] | > 1000 nM | > 1000 nM | > 1000 nM | > 1000 nM | > 1000 nM | > 1000 nM | > 1000 nM | > 1000 nM | > 1000 nM | > 1000 nM | > 1000 nM | > 1000 nM | > 1000 nM | > 1000 nM | > 1000 nM | 
CCOc1ccc(F)cc1C(=O)c1cc2cc(OCc3ccccc3)ccc2o1 [Example 63] | > 1000 nM | > 1000 nM | > 1000 nM | > 1000 nM | > 1000 nM | > 1000 nM | > 1000 nM | > 1000 nM | > 1000 nM | > 1000 nM | > 1000 nM | > 1000 nM | > 1000 nM | > 1000 nM | > 1000 nM | 
COc1ccc2oc(C(=O)c3ccccc3OCC(F)(F)F)c(N)c2c1 [Example 60] | > 1000 nM | > 1000 nM | 100 to 1000 nM | 10 to 100 nM | 10 to 100 nM | 100 to 1000 nM | 10 to 100 nM | 100 to 1000 nM | 10 to 100 nM | 10 to 100 nM | > 1000 nM | 100 to 1000 nM | 10 to 100 nM | 10 to 100 nM | > 1000 nM | 
COc1ccc2oc(C(=O)c3cccnc3N3CCCCC3)cc2c1 [Example 91] | 100 to 1000 nM | > 1000 nM | 100 to 1000 nM | 100 to 1000 nM | 100 to 1000 nM | < 10 nM | < 10 nM | 10 to 100 nM | < 10 nM | < 10 nM | > 1000 nM | 10 to 100 nM | 10 to 100 nM | 10 to 100 nM | 10 to 100 nM | 
O=C(c1cc2cc(OCc3ccccc3)ccc2o1)c1cc(F)ccc1N1CCCCC1 [Example 110] | > 1000 nM | > 1000 nM | > 1000 nM | > 1000 nM | > 1000 nM | > 1000 nM | > 1000 nM | > 1000 nM | > 1000 nM | > 1000 nM | > 1000 nM | > 1000 nM | > 1000 nM | > 1000 nM | > 1000 nM | 
COc1ccc2oc(C(=O)c3cccnc3N3CCOCC3)cc2c1 [Example 39, 5-Methoxy-2-(2-morpholino-3-pyridylcarbonyl)-benzofuran] |  | > 1000 nM |  | 10 to 100 nM |  |  |  |  | 10 to 100 nM |  | > 1000 nM |  | 10 to 100 nM |  |  | EC50 ([1]; Homo sapiens, MRC5 cells, read-out: Hoechst 33342 nuclear staining EC50, MRC5): 10 to 100 nM; EC50 ([2]; Homo sapiens, HeLa cells, read-out: Hoechst 33342 nuclear staining EC50, HeLa): 10 to 100 nM; EC50 ([2]; Homo sapiens, Jurkat cells, read-out: Hoechst 33342 nuclear staining EC50, Jurkat): 10 to 100 nM; IC50 ([3]; Homo sapiens): 10 to 100 nM; IC50 ([4]; Homo sapiens, HT-1080, HT1080 cells, read-out: MTS proliferation assay IC50, HT1080): 10 to 100 nM; IC50 ([4]; Homo sapiens, HeLa cells, read-out: MTS proliferation assay IC50, HeLa): 10 to 100 nM; IC50 ([4]; Homo sapiens, Jurkat cells, read-out: MTS proliferation assay IC50, Jurkat): 10 to 100 nM; EC50 ([6]; Homo sapiens, HeLa cells, read-out: Mitochondrial membrane potential (read-out 48 h) HeLa): 10 to 100 nM; EC50 ([6]; Homo sapiens, Jurkat cells, read-out: Mitochondrial membrane potential (read-out 48 h) Jurkat): 10 to 100 nM; EC50 ([6]; Homo sapiens, MCF7 cells, read-out: Mitochondrial membrane potential (read-out 48 h) MCF7): 100 to 1000 nM
CCOc1ccc(F)cc1C(=O)c1oc2ccc(OC)cc2c1NC(=O)OC [Example 49] | > 1000 nM | > 1000 nM | 100 to 1000 nM | 10 to 100 nM | 10 to 100 nM | 10 to 100 nM | 10 to 100 nM | 100 to 1000 nM | 10 to 100 nM | 10 to 100 nM | > 1000 nM | 100 to 1000 nM | 10 to 100 nM | 10 to 100 nM | > 1000 nM | 
CCOc1ccc(F)cc1C(=O)c1cc2cc(OCOC)ccc2o1 [Example 69] | > 1000 nM | > 1000 nM | 100 to 1000 nM | 100 to 1000 nM | 100 to 1000 nM | 100 to 1000 nM | 100 to 1000 nM | 100 to 1000 nM | 100 to 1000 nM |  | > 1000 nM | > 1000 nM | 100 to 1000 nM | 100 to 1000 nM | > 1000 nM | 
COc1ccc2oc(C(=O)c3cc(F)ccc3N3CCN(C)CC3)cc2c1 [Example 94] | > 1000 nM | > 1000 nM | > 1000 nM | > 1000 nM | 100 to 1000 nM | 100 to 1000 nM | 100 to 1000 nM | 100 to 1000 nM | 100 to 1000 nM | 100 to 1000 nM | > 1000 nM | > 1000 nM | 100 to 1000 nM | 100 to 1000 nM | > 1000 nM | 
